According to the METLIN SMRT retention time set (Domingo-Almenara et al. 2019):

Assay: gradient 5% acetonitrile 3 min, to 50% in 2 min, to 85% in 15 min, held 3 min, 100 µL/min
Conditions: column: Zorbax Extend-C18 2.1 x 50 mm; eluents: water / acetonitrile, 0.1% formic acid
Outline: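 Standards, all pure, were combined into mixtures of ~100 molecules and run at 100 μL/min on a Zorbax Extend-C18 column (2.1 × 50 mm, 1.8 μm) with water and acetonitrile, each containing 0.1% formic acid. A coupled quadrupole time-of-flight mass spectrometer operated in positive and negative ionization mode. Retention time values come from computationally picked adduct peaks, each inspected manually.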

Compound `CCN(Cc1ccccc1)C(=O)c1noc2c1CCCC2` has an RP-LC retention time of 1010 s.

In the case of `CC1CCc2onc(C(=O)N3CCN(Cc4ccc5c(c4)OCO5)CC3)c2C1` (centres undefined), the RP-LC retention time is reported as 667 s.

Work on `CC1CCCN(CCCNC(=O)CN2C(=O)CCc3cc(S(=O)(=O)N4CCCCC4)ccc32)C1` (centres undefined) yielded an RP-LC retention time of 638 s.

With `Cn1c(N2CCCC(C(=O)NCc3ccccc3)C2)cc(=O)n(C)c1=O` (centres undefined) the RP-LC retention time was 662 s.

Compound `CCCCN1N=C(C(=O)N2CCOCC2)S(=O)(=O)c2cc(Cl)ccc21` has an RP-LC retention time of 862 s.

Work on `CCOC(=O)c1c(C)oc2ncnc(Nc3cc(C)ccc3OC)c12` yielded an RP-LC retention time of 1260 s.

For `COC(=O)c1ccc(NC(=O)c2ccc(-n3ccnc3C)nn2)cc1`, the RP-LC retention time was 561 s.

`COc1ccc(NC(=O)N2CCN(c3cnn4c(C)nnc4c3)CC2)cc1` gave an RP-LC retention time of 594 s.

In the case of `O=C(CN1C(=O)COc2ccccc21)N1CCSCC1`, the RP-LC retention time is reported as 712 s.

`CCCc1ccc(S(=O)(=O)N2CCc3nc[nH]c3C2)cc1` gave an RP-LC retention time of 656 s.

In the case of `Cc1cc(C)cc(C(=O)N2CCCC(C(=O)NCCN3CCOCC3)C2)c1` (centres undefined), the RP-LC retention time is reported as 619 s.

Work on `CS(=O)(=O)c1nc2ccc(NS(=O)(=O)c3ccc4c(c3)OCCO4)cc2s1` yielded an RP-LC retention time of 792 s.

For `CSc1ncccc1C(=O)NCc1cc(-c2ccc3c(c2)OCCO3)on1`, the RP-LC retention time was 748 s.

In the case of `Cc1nn(-c2ccc(C(=O)NCc3cccs3)cc2)c2c1C(=O)CCC2`, the RP-LC retention time is reported as 749 s.

In the case of `CCCNC(=O)C1CCN(c2ccc(SCC(=O)Nc3ccc(C(F)(F)F)cc3)nn2)CC1`, the RP-LC retention time is reported as 728 s.

`O=C(CNC(=O)c1ccccc1)NC(C(=O)N1CCCc2ccccc21)c1ccccc1` (centres undefined) showed an RP-LC retention time of 816 s.

With `NS(=O)(=O)c1ccc(CCNC(=O)C2CN(c3nc4c(F)cccc4s3)C2)cc1` the RP-LC retention time was 660 s.

With `Cc1cccc(Sc2nccnc2N2CCC(C(=O)N3CCCCCC3)CC2)c1` the RP-LC retention time was 1130 s.

With `Cc1ccc(C(CC(=O)NCCCN2CCCC2)N2Cc3ccccc3C2=O)cc1` (centres undefined) the RP-LC retention time was 639 s.

For `CNC(=O)N1CCCC(c2cccc(C(=O)NCc3ccc(SC)cc3)c2)C1` (centres undefined), the RP-LC retention time was 779 s.

`Cn1c(N2CCC(C(=O)N3CCN(c4ccc(Cl)cc4)CC3)CC2)cc(=O)n(C)c1=O` showed an RP-LC retention time of 721 s.

`CCn1cnc2ccc(-c3noc(C(C)NC(=O)c4ccccc4)n3)cc21` (centres undefined) gave an RP-LC retention time of 636 s.

`Cc1oc(-c2[nH]ncc2C(=O)N(C)C)cc1S(=O)(=O)Nc1ccc(F)cc1Cl` gave an RP-LC retention time of 696 s.

With `O=S(=O)(c1cccn2c(SCc3ccc(F)cc3Cl)nnc12)N1CCCCC1` the RP-LC retention time was 879 s.

For `O=C(Nc1nc(-c2cccnc2)cs1)c1ccc(Br)s1`, the RP-LC retention time was 654 s.

For `CCCC1c2nccn2CCCN1C(=O)c1c(C)noc1C` (centres undefined), the RP-LC retention time was 576 s.

Compound `CN(C)c1cccc(C(=O)NCC2(O)CCCC2)c1` has an RP-LC retention time of 569 s.

Compound `CCC(=O)Nc1nc(-c2ccc3c(c2)NC(=O)CO3)c(C)s1` has an RP-LC retention time of 719 s.

In the case of `O=C1CCC2(CCN1)CCN(C(=O)C1CCCCC1)CC2`, the RP-LC retention time is reported as 669 s.

Compound `COc1ccc(CN2CC(C(=O)N3CCN(c4cc(=O)n(C)c(=O)n4C)CC3)CC2=O)cc1` (centres undefined) has an RP-LC retention time of 630 s.

For `CN1C(=O)C(CC(=O)NC2CCCC2)Sc2ncccc21` (centres undefined), the RP-LC retention time was 668 s.

With `CC1(C)CC(=O)c2cn(-c3ccc(F)cc3)c(=O)c(C(=O)N3CCC(N4CCCCC4)CC3)c2C1` the RP-LC retention time was 634 s.

`Cc1noc(C)c1CCNC(=O)CCCN1C(=O)CCn2nc(-c3cn(C)c4ccccc34)cc21` showed an RP-LC retention time of 732 s.

For `COc1ccc(C)cc1Nc1c(-c2nc(C)no2)cnc2nc(C)ccc12`, the RP-LC retention time was 764 s.

Work on `Cn1c(=O)oc2ccc(C(=O)Nc3nc4ccccc4s3)cc21` yielded an RP-LC retention time of 843 s.

For `CCOC(=O)C1=C(CNc2ccc(C(F)(F)F)cc2)NC(=O)NC1c1ccc2c(c1)OCO2` (centres undefined), the RP-LC retention time was 966 s.

`CCc1cccc(NS(=O)(=O)c2cc3n(c2)CCN(C)C3=O)c1` showed an RP-LC retention time of 722 s.

Compound `CCNC(=O)c1nc(C(=O)NCc2ccc(C)cc2)cs1` has an RP-LC retention time of 811 s.

Compound `O=C(Nc1ccc2nc3n(c(=O)c2c1)CCC3)Nc1ccccc1Br` has an RP-LC retention time of 726 s.

`COCCSc1nnc(NC(=O)C2CCN(C(=O)c3ccccc3F)CC2)s1` gave an RP-LC retention time of 680 s.

Work on `Cc1ccc(NC(=O)Cc2c(C)nn(-c3nc(-c4ccc(F)cc4)cs3)c2C)c(C)c1` yielded an RP-LC retention time of 1210 s.

With `COc1ccc(-c2noc(CN3N=NC4C(=O)N(c5ccc(C)c(Cl)c5)C(=O)C43)n2)c(OC)c1` (centres undefined) the RP-LC retention time was 974 s.

`CC1=C(c2ccc(C)cc2)S(=O)(=O)N=C1N1CCCN(C(=O)CC2CCCC2)CC1` showed an RP-LC retention time of 910 s.

`CCC(=O)N1CCc2cc(C(=O)NC(C)C)ccc21` gave an RP-LC retention time of 685 s.

In the case of `NC(=O)C1CCC(=O)N1C1CCN(C(=O)CCC2CCCC2)CC1` (centres undefined), the RP-LC retention time is reported as 566 s.

`O=C(Cc1nnc(-c2ccc3ncccc3c2)o1)NCc1ccccc1Cl` showed an RP-LC retention time of 711 s.

`Cc1cccc(-c2nc(C3CCN(S(=O)(=O)c4ccc5c(c4)CCCC5)CC3)no2)c1` gave an RP-LC retention time of 1410 s.

Work on `O=C1NCCCc2c1oc1ccc(O)cc21` yielded an RP-LC retention time of 567 s.

`CCc1nn(CCO)c(CC)c1Oc1cc(C#N)cc(C#N)c1` gave an RP-LC retention time of 891 s.

Work on `Cn1nccc1C(=O)Nc1ccsc1-c1nc(-c2ccccc2)no1` yielded an RP-LC retention time of 1280 s.

`O=C(NC1CCCCC1)N1CCCCC1c1nncn1CC1CC1` (centres undefined) gave an RP-LC retention time of 704 s.

`Cc1nn(C(C)C(=O)Nc2ccc(F)cc2F)c(=O)c2c(-n3cccc3)n(-c3ccccc3)nc12` (centres undefined) gave an RP-LC retention time of 1100 s.

In the case of `CCn1cnc2ccc(-c3noc(-c4ccoc4)n3)cc21`, the RP-LC retention time is reported as 683 s.

In the case of `CCCNC(=O)C1CCN(c2ccc(SCC(=O)Nc3ccc(Cl)cc3F)nn2)CC1`, the RP-LC retention time is reported as 688 s.

Work on `Cc1cc(C)n2c(Nc3ccc4c(c3)OCCO4)c(-c3cccc(Br)c3)nc2n1` yielded an RP-LC retention time of 759 s.

`Cc1nn2c(CNS(=O)(=O)Cc3cc(F)cc(F)c3)c(-c3ccccc3)nc2s1` showed an RP-LC retention time of 929 s.

`Cc1ccccc1N1CCN(S(=O)(=O)c2ccc(-c3nnc(C4CC4)o3)o2)CC1` gave an RP-LC retention time of 1090 s.

`Cc1ccc(-n2nc3c(=O)n(CCCC(=O)N4CCCC4)nc(C)c3c2C)cc1` gave an RP-LC retention time of 748 s.

`Cc1noc(C)c1CC(=O)N1CCCn2ccnc2C1C1CCCC1` (centres undefined) showed an RP-LC retention time of 595 s.

For `O=C(NCc1ccc2c(c1)OCO2)C(=O)NCC1OCCN1S(=O)(=O)c1ccccc1` (centres undefined), the RP-LC retention time was 752 s.

`Cc1nn(CC(=O)N(C)Cc2ccco2)c(=O)c2c(C)n(-c3ccccc3)nc12` gave an RP-LC retention time of 820 s.

`COCc1nc(C2CCN(C(=O)c3ccoc3)C2)no1` (centres undefined) gave an RP-LC retention time of 644 s.

`O=C(Cn1c(=O)oc2ccc(C(=O)N3CCCC3)cc21)NCCCc1ccccc1` showed an RP-LC retention time of 764 s.

Compound `COc1ccc(-c2nc(C)cc(C)c2CNS(=O)(=O)c2cccc(OC)c2)cc1` has an RP-LC retention time of 656 s.

Work on `COc1ccc(NC(=O)C2CCN(S(=O)(=O)c3cc(-c4noc(C)n4)cs3)CC2)cc1OC` yielded an RP-LC retention time of 814 s.

For `CCn1cc(C2=CCN(C(=O)Nc3ccc(OC)c(F)c3)CC2)c2cccnc21`, the RP-LC retention time was 885 s.

With `Cc1ccc(-c2nc(-c3ccc4nnc(C)n4c3)no2)c(C)c1` the RP-LC retention time was 1140 s.

With `Cc1cc(C)cc(NC(=O)C(C)C2CCN(C(=O)Nc3ccc(F)cc3)CC2)c1` (centres undefined) the RP-LC retention time was 917 s.

With `CCCN1C(=O)c2c(C(=O)NCc3ccc(N(C)C)cc3)ncn2CC1(C)C(=O)NCCC(C)C` (centres undefined) the RP-LC retention time was 649 s.

`Cc1ccc2c(Nc3ccc(C#N)cc3)c(C(=O)N3CCCC3)cnc2n1` showed an RP-LC retention time of 576 s.

`CCn1cnc(S(=O)(=O)N2CCCC(C(=O)Nc3ccc(C)cc3C)C2)c1` (centres undefined) gave an RP-LC retention time of 753 s.

For `CCC(C)c1ccc(-c2csc(NC(C)=O)n2)cc1` (centres undefined), the RP-LC retention time was 1030 s.

With `CCn1c(SC)nnc1-c1nn(C)c2c1CN(C(=O)Cc1ccc(F)cc1)CC2` the RP-LC retention time was 771 s.

For `O=C(NC1CCCCC1)c1ccc2c(c1)CCN2C(=O)C1CC1`, the RP-LC retention time was 824 s.

`Cc1cccc(C)c1NC(=O)C(C)n1cnc2nc3c(cc2c1=O)CCCC3` (centres undefined) showed an RP-LC retention time of 756 s.

In the case of `CCOc1ccc(CC(=O)N2CCN(c3ccc(-c4nc(C)cs4)cn3)CC2)cc1`, the RP-LC retention time is reported as 883 s.

In the case of `COC(=O)c1ccc(Cl)cc1NC(=O)N1CCN(CCn2c(C)nc3cccnc32)CC1`, the RP-LC retention time is reported as 657 s.

With `O=C(Cn1cc(C(=O)C(=O)N2CCCC2)c2ccccc21)NCc1ccc2c(c1)OCCCO2` the RP-LC retention time was 786 s.

`O=C(Nc1c(F)cccc1F)N1CC(c2nc(Cc3ccccc3)no2)C1` showed an RP-LC retention time of 753 s.

In the case of `O=C1[C@H]2CNC[C@H]2C(=O)N1CCc1ccccc1`, the RP-LC retention time is reported as 604 s.

Compound `Cc1nc(N2CCOCC2)c2c(C(=O)NCc3ccc(Cl)cc3)c(C)oc2n1` has an RP-LC retention time of 797 s.

Compound `CCOc1ccc(CC(=O)Nc2cc(-c3cccnc3)no2)cc1` has an RP-LC retention time of 760 s.

Compound `Cc1ccc(NC(=O)N2C[C@H](c3nc(-c4ccncc4)no3)[C@@H](C)C2)cc1` has an RP-LC retention time of 795 s.

For `COc1ccc(CN2C=C(C(=O)OCc3noc(-c4cccc(OC)c4)n3)C(C)=NS2(=O)=O)cc1`, the RP-LC retention time was 1120 s.

For `CCOc1ccc2nc(NC(=O)C3CCN(C(=O)C4Sc5ccccc5NC4=O)CC3)sc2c1` (centres undefined), the RP-LC retention time was 826 s.

Work on `CCc1ccccc1NC(=O)N1CCCC1c1nc(-c2ccccc2)no1` (centres undefined) yielded an RP-LC retention time of 987 s.

For `COC(=O)c1ccccc1OCc1cc(=O)oc2ccc(C)cc12`, the RP-LC retention time was 983 s.

For `CC1(C(=O)NCc2ccccc2)CN(S(=O)(=O)c2ccccc2)CC(=O)N1c1cccc(Cl)c1` (centres undefined), the RP-LC retention time was 958 s.

Compound `CC(C)(C)NC(=O)N1CC(c2nc(-c3cccnc3)no2)C2(CCOCC2)C1` (centres undefined) has an RP-LC retention time of 677 s.
